Values after ≈ are worked out from the molar mass of the structure shown. Where two headings read alike, the source gives them in different places.
Columns and labels:
[1] = Conversion of prodrug to parent in intestine homogenate; format: in vitro ADME; conditions: prodrug 1 μM, intestine S9 1 mg protein/mL, 37° C., pH 7.4, 2 h
Description: Conversion of Prodrug to Parent in Intestine Homogenate:
(§1) The likely stability of prodrugs in the intestine can be estimated by incubating a prodrug with intestine homogenate. Incubations of prodrugs (1 μM) with intestine S9 (1 mg protein/mL) were carried out at 37° C. in a phosphate buffer, pH 7.4. Control incubations contained BSA (1.1 mg/mL) instead of intestine S9 microsomes. Aliquots were removed at 0, 5, 15, 30, 60 and 120 min, treated with 4 volumes of acetonitrile containing 2% formic acid and an internal standard, and centrifuged. The supernatants were analyzed by LC-MS/MS for prodrug disappearance and appearance of active drug. The half-life of the prodrug was calculated from the % prodrug remaining at different time points calculated from on the peak area ratio relative to t=0. The amount of active drug generated at the different time points was determined using a standard curve.

[2] = Conversion of prodrug to parent in liver homogenate; format: in vitro ADME; conditions: prodrug 1 μM, liver S9 1 mg protein/mL, 37° C., pH 7.4, 2 h
Description: Conversion of Prodrug to Parent in Liver Homogenate:
as §1, with “liver” for “intestine”

[3] = Solubility in biorelevant fasted state simulated intestinal fluid (FaSSIF); format: physicochemical; conditions: 25 °C, fassif, kinetic from dmso stock
How it was run: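 Compound from 10 mM DMSO stock diluted into FaSSIF (maximum solubility approximately 200 μM), equilibrated, then filtered by centrifugation through a 0.45 μm polypropylene membrane. Filtrate and a 100 μM standard analysed by HPLC/DAD; solubility = (sample peak area/standard peak area) × standard concentration.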

[4] = molecular target: T1, recombinant human GST-Syk (Homo sapiens, UniProt P43405); experiment: Homogeneous Time-Resolved Fluorescence (HTRF) assay for the recombinant human Syk enzyme; format: biochemical; conditions: recombinant human GST-Syk 5 pM, ATP 25 μM, read-out: IC50
T1 construct: purchased Carna Biosciences 08-176
How it was run: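 Recombinant GST-hSyk phosphorylates a biotinylated peptide for 45 min at room temperature. Quenched with EDTA buffer containing 2 nM Eu-anti-phosphotyrosine antibody and 70 nM SA-APC; HTRF read after 30 min.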

[5] = Blood stability assay; format: in vitro ADME; conditions: whole blood; human blood, 37° C.
Description: The likely stability of prodrugs in the blood can be estimated by incubating a prodrug with blood. A prodrug stock solution was prepared at 10 mM in DMSO and working solutions (100 μM) containing the prodrug were prepared by diluting a suitable amount of the stock solution with acetonitrile/water (50/50). 5 μL of the working solution were added to 495 μL of pre-warmed blood (at 37° C.). After vortexing and mixing, 50 μL of the spiked blood sample were taken for the 0 time point and transferred to another vial containing 200 μL of quenching solution (labetalol, alprazolam and diclofenac in 100% acetonitrile) ensuring that the vial is lidded to prevent evaporation and kept on ice. While keeping the spiked blood sample at 37° C. at the following timepoints (0.25, 0.5, 1, 2 and 3 h) 5 additional aliquots (50 μL) were sampled and mixed with the quenching solution. At the end of the experiment the quenched samples were vortexed for 2 minutes and centrifuged for 10 minutes at 4000 rpm. The supernatant (100 μL) was then transferred and collected into a new 96-well plate and injected into the LC-MS/MS for analysis. For each test compound, the area ratios at each time point to the 0 hour area ratio were compared and converted to a percentage remaining. The percentage remaining were then plotted against time (h) and half life generated using the following equation t½=0.693/kel. Where kel is the elimination rate constant which is determined from the concentration versus time curve by linear regression at the terminal phase of the semi-logarithmic plot.

[6] = Conversion of prodrug to parent in in vitro biorelevant gastrointestinal tract media; format: in vitro ADME; conditions: 37° C.; for Conversion in SGF, time: simulated gastric fluid
Description: Conversion of Prodrug to Parent in In Vitro Biorelevant Gastrointestinal Tract Media: The likely stability of prodrugs in the gastrointestinal tract can be estimated by incubating a prodrug in simulated gastric and intestinal fluids; compounds were measured for stability in simulated gastric fluid (SGF), fasted state simulated intestinal fluid (FaSSIF), and fasted state simulated intestinal fluid plus pancreatin (FaSSIF+pancreatin). Prodrug stock solutions were made by diluting 2 mg of compound in 200 μL DMSO. A 10 mg/mL Pancreatin in FaSSIF stock solution was made by dissolving 10 mg Pancreatin in 1 mL FaSSIF. Samples were prepared by diluting 10 μL of compound stock solution into 990 μL of biorelevant media (990 μL SGF, 990 μL FaSSIF, or 940 μL FaSSIF plus 50 μL Pancreatin stock) in a 2 mL HPLC vial and vortexing the mixture for a few seconds. The samples were incubated at 37° C. and aliquots were removed for up to 24 hours and injected directly on an HPLC to determine the conversion of prodrug to active drug. In the case of compound precipitation upon sample preparation, an individual sample was prepared for each desired time point and the entire sample was diluted with a known volume of acetonitrile/water (50/50) to ensure compound dissolution before HPLC analysis.

SMILES	Prodrug concentration at 2 h [1] [µM]	Prodrug concentration at 2 h [2] [µM]	solubility ([3]; Solubility) [µM]	IC50 [4] [nM]	half-life at 1 μM [5] [min]	Conversion in FaSSIF + Pancreatin, time ([6]; 3 h)	Conversion in FaSSIF, time ([6]; 5 h)	Conversion in SGF, time ([6]; 5 h)	Conversion in FaSSIF, time ([6]; 3 h)	solubility ([3]; FaSSIF (fasted state simulated intestinal fluid), FaSSIF, equilibrated overnight at 25° C., maximum solubility approximately 200 μM, read-out: Solubility) [µM]
Cc1cc(Nc2cc(C(F)F)ccn2)nc(-c2ccc([C@](C)(O)[C@H]3CC[C@H](C(=O)OCC[S@@+](C)[O-])CC3)nc2)c1 (single isomer, unassigned) [Example 7-1a]	0.385	0	56 (≈ 32.1 µg/mL)	4.2						
Cc1cc(Nc2cc(C(F)F)ccn2)nc(-c2ccc([C@](C)(O)[C@H]3CC[C@H](C(=O)OCCS(C)(=O)=O)CC3)nc2)c1 [Example 1-8, 2-(methylsulfonyl)ethyl trans-4-[(1R)-1-(6-{[4-(difluoromethyl)pyridin-2-yl]amino}-4-methyl-2,3′-bipyridin-6′-yl)-1-hydroxyethyl] cyclohexanecarboxylate]				4	22					
CCOCCOCCOC(=O)OCOC(=O)[C@H]1CC[C@H]([C@@](C)(O)c2ccc(-c3cc(C)cc(Nc4cc(C(F)F)ccn4)n3)cn2)CC1 [Example 2-2, 3-oxo-2,4,7,10-tetraoxadodec-1-yl trans-4-[(1R)-1-(6-{[4-(difluoromethyl)pyridin-2-yl]amino}-4-methyl-2,3′-bipyridin-6′-yl)-1-hydroxyethyl]cyclo hexanecarboxylate]	0	0		174	7	100%, 3 h	0%, 5 h	0%, 5 h		
CCOCCOCCOC(=O)OC(C)OC(=O)[C@H]1CC[C@H]([C@@](C)(O)c2ccc(-c3cc(C)cc(Nc4cc(C(F)F)ccn4)n3)cn2)CC1 (stereo partly drawn) [Example 2-14, 1-methyl-3-oxo-2,4,7,10-tetraoxadodec-1-yl trans-4-[(1R)-1-(6-{[4-(difluoromethyl)pyridin-2-yl]amino}-4-methyl-2,3′-bipyridin-6′-yl)-1-hydroxyethyl]cyclo hexanecarboxylate]				30.4	199					
Cc1cc(Nc2cc(C(F)F)ccn2)nc(-c2ccc([C@](C)(O)[C@H]3CC[C@H](C(=O)OCOC(=O)CC(C)(C)O)CC3)nc2)c1 [Example 3-4, [(3-hydroxy-3-methylbutanoyl)oxy] methyl trans-4-[(1R)-1-(6-{[4-(difluoromethyl)pyridin-2-yl]amino}-4-methyl-2,3′-bipyridin-6′-yl)-1-hydroxyethyl]cyclohexane carboxylate]			59 (≈ 36.1 µg/mL)	1.8	14					
COCCOCCOCC(=O)OCOC(=O)[C@H]1CC[C@H]([C@@](C)(O)c2ccc(-c3cc(C)cc(Nc4cc(C(F)F)ccn4)n3)cn2)CC1 [Example 3-29, 3-oxo-2,5,8,11-tetraoxadodec-1-yl trans-4-[(1R)-1-(6-{[4-(difluoromethyl)pyridin-2-yl]amino}-4-methyl-2,3′-bipyridin-6′-yl)-1-hydroxyethyl]cyclohexane carboxylate]			41 (≈ 27.6 µg/mL)	1.2	29					
COCCN(C)C(=O)OCOC(=O)[C@H]1CC[C@H]([C@@](C)(O)c2ccc(-c3cc(C)cc(Nc4cc(C(F)F)ccn4)n3)cn2)CC1 [Example 4-2, {[(2-methoxyethyl)(methyl)carbamoyl]oxy}methyl trans-4-[(1R)-1-(6-{[4-(difluoromethyl)pyridin-2-yl]amino}-4-methyl-2,3′-bipyridin-6′-yl)-1-hydroxyethyl]cyclohexanecarboxylate]				9.1	16					
Cc1cc(Nc2cc(C(F)F)ccn2)nc(-c2ccc([C@](C)(O)[C@H]3CC[C@H](C(=O)OC[N+]4(C)CCOCC4)CC3)nc2)c1.[I-] [Example 5-1, 4-{[({trans-4-[(1R)-1-(6-{[4-(Difluoromethyl)pyridin-2-yl]amino}-4-methyl-2,3′-bipyridin-6′-yl)-1-hydroxyethyl]cyclohexyl}carbonyl)oxy]methyl}-4-methylmorpholin-4-ium]	0.321	0.314		3.6	15	45%, 3 h		0%, 5 h	12%, 3 h	200
Cc1cc(Nc2cc(C(F)F)ccn2)nc(-c2ccc([C@](C)(O)[C@H]3CC[C@H](C(=O)OCn4cc[n+](C)c4)CC3)nc2)c1 [Example 6-1, 1-{[({Trans-4-[(1R)-1-(6-{[4-(Difluoromethyl)pyridin-2-yl]amino}-4-methyl-2,3′-bipyridin-6′-yl)-1-hydroxyethyl]cyclohexyl}carbonyl)oxy]methyl}-3-methyl-1H-imidazol-3-ium]	0.844	0.622	140	0.8	24					
Cc1cc(Nc2cc(C(F)F)ccn2)nc(-c2ccc([C@](C)(O)[C@H]3CC[C@H](C(=O)OCOC(=O)OCCOCCOCCOCCOP(=O)(O)O)CC3)nc2)c1 [Example 8-1, 17,17-Dihydroxy-17-oxido-3-oxo-2,4,7,10,13,16-hexaoxa-17λ^5-phosphaheptadec-1-yl trans-4-[(1R)-1-(6-{[4-(difluoromethyl)pyridin-2-yl]amino}-4-methyl-2,3′-bipyridin-6′-yl)-1-hydroxyethyl]cyclohexanecarboxylate]	0	0	154 (≈ 125 µg/mL)	< 0.5						
Cc1cc(Nc2cc(C(F)F)ccn2)nc(-c2ccc([C@](C)(O)[C@H]3CC[C@H](C(=O)OCCOP(=O)(O)O)CC3)nc2)c1 [Example 8-2, 2-(phosphonooxy)ethyl trans-4-[(1R)-1-(6-{[4-(difluoromethyl)pyridin-2-yl]amino}-4-methyl-2,3′-bipyridin-6′-yl)-1-hydroxyethyl]cyclohexane-carboxylate]	0.249	0.434	161 (≈ 97.7 µg/mL)	< 0.5		20%, 3 h	0%, 5 h	0%, 5 h		
